Results taken from PubChem BioAssay AID2060905 (Molecular Pharmacology Branch, DTP, NCI, 2025).

Tested on: 282377-053-R-J1-PDC complex spheroid viability
Assay: Anticancer human tumor 282377-053-R-J1-PDC patient-derived colon adenocarcinoma cell line growth inhibition [RAS]
Details: for viability, T/C: stronger effect = lower value
Procedure, shortened: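 Multi-cell-type spheroids: tumor cells plus HUVEC endothelial cells and mesenchymal stem cells. RAS-pathway inhibitors were combined with targeted agents, each dosed in half-log steps down from clinical Cmax, or from 10 microM when Cmax was unknown.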
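Also: spheroids exposed to agents for seven days before readout.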
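For viability, T/C in this document: luminescence viability as percent of DMSO vehicle control wells.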

For `Cc1nc(N2CCC3(CC2)COC(C)C3N)c(CO)nc1Sc1ccnc(N)c1Cl` (stereo not drawn) + CCn1c(-c2cccnc2C(C)OC)c2c3cc(ccc31)N1CCOC(CC(NC(=O)C(C(C)C)N(C)C(=O)C3(F)CCN(C(=O)C#CC(C)(C)N(C)C)CC3)C(=O)N3CCCC(N3)C(=O)OCC(C)(C)C2)C1, the IC50 (curve of first compound, second compound 0.000949 µM) was > 10 µM, the IC50 (curve of first compound, second compound 0.003 µM) was > 10 µM and the IC50 (curve of first compound, second compound 0.00949 µM) was > 10 µM. For the same molecule, the IC50 (curve of first compound, second compound 0.03 µM) was > 10 µM, the IC50 (curve of first compound, second compound 0.0949 µM) was > 10 µM and the IC50 (curve of first compound, second compound 0.3 µM) was > 10 µM. The viability, T/C (second compound 0.000949 µM, first compound 0.0316 µM) was 81%, the viability, T/C (second compound 0.000949 µM, first compound 0.1 µM) was 93.8% and the viability, T/C (second compound 0.000949 µM, first compound 0.316 µM) was 89.8%. It also gave a viability, T/C (second compound 0.000949 µM, first compound 1 µM) of 94.2%, a viability, T/C (second compound 0.000949 µM, first compound 3.16 µM) of 81.8% and a viability, T/C (second compound 0.000949 µM, first compound 10 µM) of 80.6%. It also gave a viability, T/C (second compound 0.003 µM, first compound 0.0316 µM) of 85.8%, a viability, T/C (second compound 0.003 µM, first compound 0.1 µM) of 115% and a viability, T/C (second compound 0.003 µM, first compound 0.316 µM) of 101%. For the same molecule, the viability, T/C (second compound 0.003 µM, first compound 1 µM) was 85.8%, the viability, T/C (second compound 0.003 µM, first compound 3.16 µM) was 82.1% and the viability, T/C (second compound 0.003 µM, first compound 10 µM) was 75.1%. For the same molecule, the viability, T/C (second compound 0.00949 µM, first compound 0.0316 µM) was 111%, the viability, T/C (second compound 0.00949 µM, first compound 0.1 µM) was 85.1% and the viability, T/C (second compound 0.00949 µM, first compound 0.316 µM) was 89.2%. It also gave a viability, T/C (second compound 0.00949 µM, first compound 1 µM) of 99.7%, a viability, T/C (second compound 0.00949 µM, first compound 3.16 µM) of 99.5% and a viability, T/C (second compound 0.00949 µM, first compound 10 µM) of 110%. The viability, T/C (second compound 0.03 µM, first compound 0.0316 µM) was 101%, the viability, T/C (second compound 0.03 µM, first compound 0.1 µM) was 83.8% and the viability, T/C (second compound 0.03 µM, first compound 0.316 µM) was 102%. For the same molecule, the viability, T/C (second compound 0.03 µM, first compound 1 µM) was 87%, the viability, T/C (second compound 0.03 µM, first compound 3.16 µM) was 84.4% and the viability, T/C (second compound 0.03 µM, first compound 10 µM) was 83.4%. For the same molecule, the viability, T/C (second compound 0.0949 µM, first compound 0.0316 µM) was 88.9%, the viability, T/C (second compound 0.0949 µM, first compound 0.1 µM) was 96.2% and the viability, T/C (second compound 0.0949 µM, first compound 0.316 µM) was 108%. It also gave a viability, T/C (second compound 0.0949 µM, first compound 1 µM) of 103%, a viability, T/C (second compound 0.0949 µM, first compound 3.16 µM) of 95.5% and a viability, T/C (second compound 0.0949 µM, first compound 10 µM) of 105%. It also gave a viability, T/C (second compound 0.3 µM, first compound 0.0316 µM) of 87.6%, a viability, T/C (second compound 0.3 µM, first compound 0.1 µM) of 103% and a viability, T/C (second compound 0.3 µM, first compound 0.316 µM) of 93%. It also gave a viability, T/C (second compound 0.3 µM, first compound 1 µM) of 100%, a viability, T/C (second compound 0.3 µM, first compound 3.16 µM) of 90% and a viability, T/C (second compound 0.3 µM, first compound 10 µM) of 119%.

`CC(Nc1ccc2c(c1)OCCn1cc(N3C(=O)OCC3C(F)F)nc1-2)C(N)=O` (stereo not drawn) + C=CC(=O)N1CCN(c2nc(OCC3CCCN3C)nc3c(F)c(-c4nc(N)cc(C)c4C(F)(F)F)c(Cl)cc23)C(C)C1 was tested, and the IC50 (curve of first compound, second compound 0.00316 µM) was > 10 µM, the IC50 (curve of first compound, second compound 0.01 µM) was > 10 µM and the IC50 (curve of first compound, second compound 0.0316 µM) was > 10 µM. For the same molecule, the IC50 (curve of first compound, second compound 0.1 µM) was > 10 µM, the IC50 (curve of first compound, second compound 0.316 µM) was > 10 µM and the IC50 (curve of first compound, second compound 1 µM) was > 10 µM. For the same molecule, the viability, T/C (second compound 0.00316 µM, first compound 0.0316 µM) was 100%, the viability, T/C (second compound 0.00316 µM, first compound 0.1 µM) was 93.8% and the viability, T/C (second compound 0.00316 µM, first compound 0.316 µM) was 94.3%. It also gave a viability, T/C (second compound 0.00316 µM, first compound 1 µM) of 82.6%, a viability, T/C (second compound 0.00316 µM, first compound 3.16 µM) of 78.9% and a viability, T/C (second compound 0.00316 µM, first compound 10 µM) of 70.1%. The viability, T/C (second compound 0.01 µM, first compound 0.0316 µM) was 105%, the viability, T/C (second compound 0.01 µM, first compound 0.1 µM) was 89.1% and the viability, T/C (second compound 0.01 µM, first compound 0.316 µM) was 79.6%. It also gave a viability, T/C (second compound 0.01 µM, first compound 1 µM) of 82.4%, a viability, T/C (second compound 0.01 µM, first compound 3.16 µM) of 89.9% and a viability, T/C (second compound 0.01 µM, first compound 10 µM) of 81.5%. For the same molecule, the viability, T/C (second compound 0.0316 µM, first compound 0.0316 µM) was 91.1%, the viability, T/C (second compound 0.0316 µM, first compound 0.1 µM) was 86.9% and the viability, T/C (second compound 0.0316 µM, first compound 0.316 µM) was 87.1%. The viability, T/C (second compound 0.0316 µM, first compound 1 µM) was 88.9%, the viability, T/C (second compound 0.0316 µM, first compound 3.16 µM) was 77.6% and the viability, T/C (second compound 0.0316 µM, first compound 10 µM) was 86.1%. For the same molecule, the viability, T/C (second compound 0.1 µM, first compound 0.0316 µM) was 101%, the viability, T/C (second compound 0.1 µM, first compound 0.1 µM) was 94.1% and the viability, T/C (second compound 0.1 µM, first compound 0.316 µM) was 95.5%. It also gave a viability, T/C (second compound 0.1 µM, first compound 1 µM) of 82.2%, a viability, T/C (second compound 0.1 µM, first compound 3.16 µM) of 102% and a viability, T/C (second compound 0.1 µM, first compound 10 µM) of 76.7%. It also gave a viability, T/C (second compound 0.316 µM, first compound 0.0316 µM) of 104%, a viability, T/C (second compound 0.316 µM, first compound 0.1 µM) of 92.8% and a viability, T/C (second compound 0.316 µM, first compound 0.316 µM) of 100%. The viability, T/C (second compound 0.316 µM, first compound 1 µM) was 94.3%, the viability, T/C (second compound 0.316 µM, first compound 3.16 µM) was 78.2% and the viability, T/C (second compound 0.316 µM, first compound 10 µM) was 78.4%. The viability, T/C (second compound 1 µM, first compound 0.0316 µM) was 105%, the viability, T/C (second compound 1 µM, first compound 0.1 µM) was 102% and the viability, T/C (second compound 1 µM, first compound 0.316 µM) was 92%. It also gave a viability, T/C (second compound 1 µM, first compound 1 µM) of 93.8%, a viability, T/C (second compound 1 µM, first compound 3.16 µM) of 76% and a viability, T/C (second compound 1 µM, first compound 10 µM) of 83.8%.

For `CC1(C)CCC(Nc2ncc(C(F)(F)F)c(-c3c[nH]c4c(P(C)(C)=O)c(C#N)ccc34)n2)CN1` (stereo not drawn), the viability, T/C (compound 0.003 µM) was 102% [middle of 4 runs], the viability, T/C (compound 0.0949 µM) was 74.2% [middle of 4 runs] and the viability, T/C (compound 0.3 µM) was 75.7% [middle of 4 runs]. The IC50 (curve of compound) was > 0.3 µM.
